In PubChem BioAssay (NCI) one finds TGI and GI50 data, which are given here for 14 compounds.

Among the test systems are CAKI-1 renal; UACC-62 melanoma; MCF7 breast; U251 CNS; COLO 205 colon; A549 NSCLC; SK-OV-3 ovarian; M14 melanoma.
Assay in all cases: NCI tumour cell line growth inhibition, 48 h

Each structure is given as a SMILES string.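 Cells were grown in 96-well plates and exposed to each compound for 48 hours at five concentrations; endpoints were interpolated linearly between bracketing concentrations, or set to the highest concentration if not reached. GI50 is the concentration that inhibits growth by half. TGI: total growth inhibition.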

For `O=C1CCCCCCCCCCC1CN1CCCC1` (stereo not drawn), the TGI was more than 100 µM in the assay with CAKI-1 renal; 36.7 µM in the assay on UACC-62 melanoma; 50.3 µM with MCF7 breast; more than 100 µM in the assay with U251 CNS; 51.9 µM in the assay on COLO 205 colon; more than 100 µM in the assay with A549 NSCLC. Besides, the TGI in the assay with SK-OV-3 ovarian was more than 100 µM; with M14 melanoma, 47.2 µM.

Take `COc1cccc(-c2c[nH]c3c(N/N=C/c4ccncc4)ncnc23)c1`: the GI50 in the assay on CAKI-1 renal was 1.84 µM; with UACC-62 melanoma it was 2.8 µM; in the assay with MCF7 breast it was 1.93 µM; with U251 CNS, 2.13 µM; in the assay on COLO 205 colon, 1.2 µM; with A549 NSCLC it was 2.67 µM. Also, the GI50 was 0.903 µM in the assay with SK-OV-3 ovarian and 3.19 µM in the assay with M14 melanoma. Further, the TGI was more than 25 µM with CAKI-1 renal; 6.31 µM in the assay on UACC-62 melanoma; 5.91 µM in the assay on MCF7 breast; 7.94 µM with U251 CNS; 4.39 µM with COLO 205 colon; 10.1 µM with A549 NSCLC. The TGI in the assay on SK-OV-3 ovarian is 3.91 µM; in the assay with M14 melanoma, 9.54 µM.

Turning to `Nc1ncnc2c1N=C(c1ccc3c(c1)OCO3)CC(c1ccc([N+](=O)[O-])cc1)N2` (stereo not drawn), the GI50 in the assay on CAKI-1 renal was 25.5 µM; with UACC-62 melanoma, 76.9 µM; in the assay with MCF7 breast, 31.5 µM; in the assay on U251 CNS it was 49.3 µM; with COLO 205 colon, 92 µM; in the assay on A549 NSCLC, 69.7 µM. Further, the GI50 with SK-OV-3 ovarian and in the assay on M14 melanoma was more than 100 µM each time. The TGI with CAKI-1 renal, with UACC-62 melanoma, in the assay with MCF7 breast, with U251 CNS, in the assay on COLO 205 colon and in the assay with A549 NSCLC was more than 100 µM throughout. The TGI in the assay on SK-OV-3 ovarian and in the assay on M14 melanoma was more than 100 µM each time.

Consider `O=C1OCC2=C1C(c1cccc(Cl)c1)c1cc3c(cc1N2CCO)OCCO3` (stereo not drawn), for which the GI50 in the assay on CAKI-1 renal is 0.0697 µM; in the assay with UACC-62 melanoma, 0.0367 µM; in the assay on MCF7 breast, 0.0379 µM; in the assay with U251 CNS, 0.0542 µM; in the assay on COLO 205 colon it was 0.0971 µM; in the assay with A549 NSCLC, 0.132 µM. The figures for the GI50 with SK-OV-3 ovarian and in the assay with M14 melanoma were 0.0548 µM and 0.0493 µM, respectively. Also, the TGI in the assay on CAKI-1 renal was more than 55.6 µM; in the assay on UACC-62 melanoma, more than 70 µM; with MCF7 breast it was 97.6 µM; in the assay on U251 CNS it was 7.14 µM; in the assay on COLO 205 colon it was 0.651 µM; with A549 NSCLC it was 4.35 µM. The figures for the TGI with SK-OV-3 ovarian and in the assay on M14 melanoma were 1.96 µM and 1.57 µM, respectively.

On to `C=CCN=C(N/N=C/c1ccc([N+](=O)[O-])o1)NS(=O)(=O)c1cc(C(=O)Nc2ccc(Cl)cc2)c(Cl)cc1SC`, for which the GI50 in the assay on CAKI-1 renal was 8.55 µM; in the assay with UACC-62 melanoma it was 2.81 µM; with MCF7 breast, 1.28 µM; in the assay with U251 CNS it was 3.93 µM; with A549 NSCLC it was more than 37.3 µM; in the assay with SK-OV-3 ovarian, more than 100 µM. Further, the GI50 in the assay with M14 melanoma is 3.09 µM. Further, the TGI is more than 100 µM in the assay with CAKI-1 renal; more than 27.7 µM in the assay on UACC-62 melanoma; more than 100 µM in the assay with MCF7 breast; more than 100 µM in the assay on U251 CNS; more than 100 µM in the assay on COLO 205 colon; more than 100 µM in the assay with A549 NSCLC. The TGI in the assay on SK-OV-3 ovarian was more than 100 µM; in the assay with M14 melanoma, more than 21.6 µM.

For the compound `COc1cc(OC)c2nc(C)c3c(c2c1)SCC3`, the TGI was 70.9 µM in the assay on CAKI-1 renal; 56.4 µM in the assay with UACC-62 melanoma; 36.2 µM in the assay with MCF7 breast; 55.9 µM with U251 CNS; more than 100 µM in the assay on COLO 205 colon; 40.9 µM with A549 NSCLC. For the same compound, the TGI is 48.9 µM in the assay with SK-OV-3 ovarian and more than 100 µM in the assay with M14 melanoma.

Regarding `CN(C)CCN1C(=O)c2c(c3c4ccccc4n4c3c3c2c2ccccc2n3C2CC(O)C(O)C4(C)O2)C1=O` (stereo not drawn), the GI50 is 1.98 µM in the assay on CAKI-1 renal; 0.767 µM in the assay with UACC-62 melanoma; 0.58 µM in the assay with MCF7 breast; 1.04 µM in the assay with U251 CNS; 1.23 µM in the assay on COLO 205 colon; 0.643 µM in the assay with A549 NSCLC. The GI50 was 1.8 µM in the assay on SK-OV-3 ovarian and 1.71 µM in the assay on M14 melanoma. Besides, the TGI with CAKI-1 renal turned out to be 12 µM; in the assay with UACC-62 melanoma, 3.93 µM; in the assay on MCF7 breast it was 7.44 µM; in the assay with U251 CNS it was 7.29 µM; in the assay on COLO 205 colon, 7.1 µM; in the assay on A549 NSCLC it was 7.4 µM. Also, the TGI in the assay with SK-OV-3 ovarian was 9.9 µM; in the assay on M14 melanoma, 7.47 µM.

Regarding `CC1(C)CC(O)C(C)(C)[C@@H](O)C1` (stereo partly drawn), the TGI in the assay on CAKI-1 renal, in the assay on UACC-62 melanoma, with MCF7 breast, in the assay with U251 CNS, in the assay on COLO 205 colon and in the assay with A549 NSCLC was more than 100 µM in each case. In addition, the TGI in the assay with SK-OV-3 ovarian and in the assay on M14 melanoma was more than 100 µM each time.

With `Cc1c(C(=O)Nc2ccccc2)sc2ncn(Cc3cccc(Cl)c3)c(=O)c12`, the GI50 is 15.4 µM with CAKI-1 renal; 18.8 µM with UACC-62 melanoma; 10.6 µM with MCF7 breast; 34 µM in the assay with U251 CNS; more than 100 µM with COLO 205 colon; 29.6 µM in the assay on A549 NSCLC. Also, the GI50 was more than 100 µM in the assay with SK-OV-3 ovarian and 43.6 µM in the assay with M14 melanoma. The TGI is 84.5 µM in the assay with CAKI-1 renal; more than 100 µM in the assay with UACC-62 melanoma; more than 100 µM with MCF7 breast; more than 100 µM in the assay with U251 CNS; more than 100 µM in the assay on COLO 205 colon; 93.1 µM in the assay with A549 NSCLC. In addition, the TGI in the assay with SK-OV-3 ovarian and in the assay on M14 melanoma was more than 100 µM each time.

With `COc1cc2nc(N3CCCC3)nc(NCc3ccccc3)c2cc1OC`, the GI50 in the assay with CAKI-1 renal was 1.57 µM; with UACC-62 melanoma it was 2.28 µM; with MCF7 breast, 1.71 µM; in the assay with U251 CNS, 1.88 µM; in the assay on COLO 205 colon it was 1.45 µM; in the assay with A549 NSCLC, 4.1 µM. Further, the GI50 in the assay on SK-OV-3 ovarian is 14 µM; in the assay with M14 melanoma, 1.81 µM. Besides, the TGI amounted to 3.14 µM in the assay on CAKI-1 renal; 5.39 µM in the assay on UACC-62 melanoma; 4.21 µM with MCF7 breast; 3.92 µM in the assay with U251 CNS; 3.14 µM in the assay with COLO 205 colon; 16.3 µM with A549 NSCLC. Moreover, the TGI with SK-OV-3 ovarian turned out to be 27.4 µM; in the assay on M14 melanoma, 3.49 µM.

In the case of `CC1=C(c2cccc(O)c2)[C@H](c2ccc(OCCN3CC(CF)C3)cc2)Oc2ccc(O)cc21`, the GI50 in the assay on CAKI-1 renal was 3.13 µM; in the assay on UACC-62 melanoma it was 10.4 µM; in the assay with MCF7 breast it was 0.0194 µM; in the assay on U251 CNS, 4.19 µM; in the assay on COLO 205 colon, 6.34 µM; with A549 NSCLC, 7.81 µM. Moreover, the GI50 in the assay on SK-OV-3 ovarian was 6.26 µM; in the assay with M14 melanoma, 2.93 µM. The TGI turned out to be 12.9 µM in the assay with CAKI-1 renal; 22.6 µM in the assay with UACC-62 melanoma; 13.4 µM in the assay on MCF7 breast; 18.1 µM with U251 CNS; 23.1 µM in the assay with COLO 205 colon; 23.8 µM in the assay with A549 NSCLC. The TGI was determined as 20.6 µM in the assay on SK-OV-3 ovarian and 9.45 µM with M14 melanoma.

In the case of `COC1CC(O[C@H]2CC[C@@]3(C)[C@H](CC[C@@H]4[C@@H]3CC[C@]3(C)[C@@H](C5=CC(=O)OC5)[C@@H](OC(C)=O)C[C@]43O)C2)OC(C)C1O` (stereo partly drawn), the GI50 with CAKI-1 renal, in the assay with UACC-62 melanoma, in the assay on MCF7 breast, in the assay with U251 CNS, with COLO 205 colon and in the assay on A549 NSCLC was less than 0.01 µM throughout. Also, the GI50 in the assay on SK-OV-3 ovarian and in the assay with M14 melanoma was less than 0.01 µM in each case. In addition, the TGI was less than 0.01 µM with CAKI-1 renal; less than 0.01 µM in the assay on UACC-62 melanoma; less than 0.0117 µM in the assay on MCF7 breast; less than 0.01 µM with U251 CNS; less than 0.01 µM in the assay on COLO 205 colon; less than 0.01 µM with A549 NSCLC. Further, the TGI is less than 0.01 µM with SK-OV-3 ovarian and less than 0.0106 µM with M14 melanoma.

Regarding `N#C/C(=C\c1ccsc1)c1nc2ccccc2o1`, the GI50 was 22.3 µM in the assay with CAKI-1 renal; 61.6 µM in the assay on UACC-62 melanoma; 17.8 µM in the assay with MCF7 breast; 37.2 µM in the assay on U251 CNS; 39 µM in the assay with COLO 205 colon; more than 100 µM in the assay with A549 NSCLC. The GI50 with SK-OV-3 ovarian was 40.7 µM; with M14 melanoma, more than 100 µM. In addition, the TGI with CAKI-1 renal, with UACC-62 melanoma, in the assay with MCF7 breast, with U251 CNS, with COLO 205 colon and with A549 NSCLC was more than 100 µM in each case. The TGI in the assay with SK-OV-3 ovarian and in the assay with M14 melanoma was more than 100 µM in each case.

Regarding `O=C1c2cc3c(cc2[C@@H]2[C@H]1c1ccc([N+](=O)[O-])cc1C(=O)N2CCCBr)OCO3`, the GI50 with CAKI-1 renal, in the assay on UACC-62 melanoma, in the assay on MCF7 breast, in the assay with U251 CNS, in the assay with COLO 205 colon and in the assay on A549 NSCLC was less than 0.01 µM each time. The GI50 in the assay on SK-OV-3 ovarian and in the assay with M14 melanoma was less than 0.01 µM each time. Besides, the TGI was less than 0.0335 µM with CAKI-1 renal; less than 0.01 µM with UACC-62 melanoma; less than 0.01 µM in the assay with MCF7 breast; more than 100 µM in the assay with COLO 205 colon; 0.0865 µM with A549 NSCLC; more than 100 µM with SK-OV-3 ovarian. Moreover, the TGI in the assay with M14 melanoma was determined as 0.318 µM.
